Reference: ChEMBL document CHEMBL4823254, “Tetrahydroquinoline-Capped Histone Deacetylase 6 Inhibitor SW-101 Ameliorates Pathological Phenotypes in a Charcot-Marie-Tooth Type 2A Mouse Model” (J Med Chem, 2021)
The source made the active and inactive calls. The rule behind the calls is not given here.

Key:
[1] = Cmax in C57BL/6J mouse plasma at 15 mg/kg, ip; assay type: ADME, organism-based; design: route intraperitoneal, dose 15 mg/kg
[2] = target: T1, Protein deacetylase HDAC6 (Homo sapiens, UniProt Q9UBN7)
T1 sequence (Q9UBN7 whole entry): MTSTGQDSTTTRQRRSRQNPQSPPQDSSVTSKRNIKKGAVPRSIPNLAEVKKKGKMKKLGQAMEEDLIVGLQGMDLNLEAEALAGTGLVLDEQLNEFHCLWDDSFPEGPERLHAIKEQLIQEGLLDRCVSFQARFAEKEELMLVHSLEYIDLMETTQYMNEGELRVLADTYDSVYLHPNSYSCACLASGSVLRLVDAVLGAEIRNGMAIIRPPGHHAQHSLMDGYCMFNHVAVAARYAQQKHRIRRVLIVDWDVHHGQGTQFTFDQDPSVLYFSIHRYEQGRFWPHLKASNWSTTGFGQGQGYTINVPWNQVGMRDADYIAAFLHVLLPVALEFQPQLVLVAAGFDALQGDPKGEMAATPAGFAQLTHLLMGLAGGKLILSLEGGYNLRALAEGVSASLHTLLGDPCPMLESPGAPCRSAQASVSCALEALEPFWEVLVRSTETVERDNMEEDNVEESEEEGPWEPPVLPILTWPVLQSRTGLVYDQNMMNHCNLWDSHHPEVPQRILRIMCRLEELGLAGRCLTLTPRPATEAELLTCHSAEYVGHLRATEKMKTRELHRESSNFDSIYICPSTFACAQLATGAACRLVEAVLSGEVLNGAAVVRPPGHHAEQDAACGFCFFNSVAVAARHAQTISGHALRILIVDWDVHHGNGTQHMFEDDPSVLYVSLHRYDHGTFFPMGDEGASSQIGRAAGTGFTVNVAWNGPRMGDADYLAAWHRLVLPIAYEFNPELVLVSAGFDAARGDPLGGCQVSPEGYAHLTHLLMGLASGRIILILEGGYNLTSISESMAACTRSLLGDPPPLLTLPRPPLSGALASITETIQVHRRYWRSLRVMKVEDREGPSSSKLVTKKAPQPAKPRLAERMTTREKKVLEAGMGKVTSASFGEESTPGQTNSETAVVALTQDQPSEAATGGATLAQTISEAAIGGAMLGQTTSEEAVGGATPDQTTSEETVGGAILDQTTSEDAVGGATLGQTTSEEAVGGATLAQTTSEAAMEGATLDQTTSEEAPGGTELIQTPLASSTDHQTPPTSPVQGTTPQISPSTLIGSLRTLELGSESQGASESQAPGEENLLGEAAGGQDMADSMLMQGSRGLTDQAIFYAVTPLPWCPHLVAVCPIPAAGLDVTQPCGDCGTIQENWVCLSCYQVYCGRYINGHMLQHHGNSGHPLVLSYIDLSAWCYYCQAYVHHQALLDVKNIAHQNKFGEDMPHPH
Description: Inhibition of recombinant human HDAC6 using Ac-GAK(Ac)-AMC as substrate preincubated for 10 mins followed by substrate addition and measured after 30 mins by fluorescence-based assay

[3] = Protein binding in human plasma; assay type: ADME, cell-free; conditions: read-out: PPB (converted)
[4] = target: T1, Protein deacetylase HDAC6; assay: Inhibition of HDAC6 in human RPMI-8226 cells assessed as increase in tubulin acetylation incubated for 6 hrs by Western blot analysis; assay type: cell-based
[5] = Half life in mouse liver s9 fraction; assay type: ADME, subcellular
[6] = Genotoxicity in Salmonella typhimurium TA1535 at 5 to 100 uM in presence of liver S9 fraction by Ames test; assay type: toxicity; conditions: salmonella enterica subsp. enterica serovar typhimurium, s9, 100 µM; dose 5-100 µM
[7] = Half life in CD1 mouse pooled liver microsomes assessed as parent compound remaining measured up to 60 mins in presence of NADPH by LC-MS/MS analysis; assay type: ADME, Microsome; conditions: CD1, mouse, pooled liver microsomes
[8] = Half life in mouse plasma; assay type: ADME, cell-free
[9] = Genotoxicity in Salmonella typhimurium TA100 at 5 to 100 uM in absence of liver S9 fraction by Ames test; assay type: toxicity; conditions: salmonella enterica subsp. enterica serovar typhimurium, s9, 100 µM; dose 5-100 µM
[10] = test system: Mus musculus; assay: Neuroprotective activity in hMFN2-induced CMT2A transgenic mouse model assessed as increase in motor performance at 20 mg/kg, ip qd by rotarod test; assay type: functional, organism-based
[11] = target: Histone deacetylase 3 (Homo sapiens, UniProt O15379); assay: Inhibition of recombinant human HDAC3 using Ac-GAK(Ac)-AMC as substrate preincubated for 10 mins followed by substrate addition and measured after 30 mins by fluorescence-based assay
Histone deacetylase 3, sequence (O15379 whole entry): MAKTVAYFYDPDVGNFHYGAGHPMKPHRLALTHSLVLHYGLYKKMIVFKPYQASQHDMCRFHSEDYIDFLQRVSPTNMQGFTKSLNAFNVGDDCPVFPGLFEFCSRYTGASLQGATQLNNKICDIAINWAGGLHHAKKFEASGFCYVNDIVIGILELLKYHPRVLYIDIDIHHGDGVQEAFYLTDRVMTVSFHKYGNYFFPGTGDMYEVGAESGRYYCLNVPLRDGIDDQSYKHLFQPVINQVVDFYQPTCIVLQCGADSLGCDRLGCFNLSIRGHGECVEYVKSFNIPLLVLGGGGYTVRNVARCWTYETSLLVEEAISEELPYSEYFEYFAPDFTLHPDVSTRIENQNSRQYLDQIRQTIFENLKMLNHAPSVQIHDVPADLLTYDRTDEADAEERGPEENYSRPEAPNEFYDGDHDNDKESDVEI

[12] = test system: Mus musculus; assay: Neuroprotective activity in hMFN2-induced CMT2A transgenic mouse model assessed as increase in paw withdrawal latency at 20 mg/kg, ip qd by von Frey test; assay type: functional, organism-based
[13] = Total AUC (0 to infinity) in C57BL/6J mouse brain at 15 mg/kg, ip; assay type: ADME, organism-based; design: time AUCmax, route intraperitoneal, dose 15 mg/kg
[14] = Protein binding in mouse plasma; assay type: ADME, cell-free; conditions: read-out: PPB (converted)

With `NC(=O)c1ccc2c(c1)CCCN2Cc1ccc(C(=O)NO)cc1` the Cmax [1] was 3580 ng/mL, the IC50 [2] was 0.7 nM and the fraction unbound [3] was 0.142. For the same compound, the EC50 [4] was 140 nM, the half-life [5] was 3.55 h and the Activity [6] was “Non-Toxic”. For the same compound, the half-life [7] was 1.48 h, the half-life [8] was 2.12 h and the Activity [9] was “Non-Toxic”. For the same compound, the Activity [10] was “Active”, the IC50 [11] was 235 nM and the Activity [12] was “Active”. It also gave an AUC(0-inf) [13] of 280 ng·h/mL and a fraction unbound [14] of 0.241.
